This passage reports IC50 results from paper PMC7277860, “Viridistratins A−C, Antimicrobial and Cytotoxic Benzo[j]fluoranthenes from Stromata of Annulohypoxylon viridistratum (Hypoxylaceae, Ascomycota)” (Biomolecules, 2020).

One data set deals with L929 (mouse fibroblasts). Briefly: Cytotoxicity assay (MTT). Particulars: 5 days. It is filed as cell-based. The method, then: (§1) Compounds 1−5 were dissolved as described in the previous section. The cytotoxicity assay was initially performed against the cell lines L929 (mouse fibroblasts), as well as KB 3.1 (human papillomavirus-related endocervical adenocarcinoma), as described previously. A detailed protocol, as well as sources of the cell lines, is given in the Supporting Information.
(§2) After incubating the cell lines with a serial dilution of the test compounds (final range: 37 to 0.6 × 10^−3 µg/mL) for five days, the cells were dyed using 3-(4,5-dimethyl-2-thiazolyl)-2,5-diphenyl-2H-tetrazolium bromide (MTT), which is only converted to its purple formazan derivative by living cells. Then, the intensity of the purple derivative in relation to cells without additive (set to 100% viability) for each concentration of a test compound was quantified. For this, the absorption at 595 nm was measured using a microplate reader to calculate the percentage of cell viability. From this, the half-maximum inhibitory concentration (IC50, in µM) was calculated.
(§3) Protocol: Cytotoxicity Assay
(§4) The ass ay w as co nducted i n 9 6-well flat-bottom mi crotiter plates using the parameters summarised i n Tabl e S 2 and as described in [S2].
(§5) Cell lines L929 and KB 3.1 were incubated at 37 °C under 10 % CO2 in Gibco™ DMEM medium (Thermo Fisher Scientific, Waltham, MA, USA) supplemented with 10 % FBS. A microtiter plate was filled with 120 µL of this suspension (50,000/mL) in each well.
(§6) Seperately, another microtiter plate was filled with 100 µL of growth medium in each well. Then, 50 µL of the test compound sol utions (1 mg/mL) were given to wells of the first column in two replicates (one compound per row). C ell s wi thout addi ti ves, Me O H, and MeOH: DMSO 9+1 were used as negative controls. Starting from the first column, 50 µL of the solutions were gradually transferred to the ne xt col umn, the conte nts thoroughl y mi xed, and 50 µ L transferred to the following column. This created a serial dilution of the test compounds r anging from 333 µg/mL to 1.9 ×10−3 µg/mL. The remai ni ng 50 µL after column twelve were discarded. From this microtiter plate, 60 µL of the sol utions from 111 µg/ mL to 1.9×10−3 µg/mL were given to the first plate containing 120 µL of the cel l suspens i ons (i.e. the hi ghest concentrati on 333 µg/mL was not used). T his resulted i n fi nal compound concent rati ons rangi ng from […]
(§7) After 5 days of incubation under the aforeme ntioned i ncubati on condi ti ons, the half maximum inhibitory concentrati ons (IC 50) were determined using a colorimetric tetrazolium dye MTT assay [S3].
(§8) For this, 20 µL of a 5 mg/mL solution of 3-( 4 ,5 -dimethyl-2-thi azo l yl)-2 ,5 -di phenyl -2H-tetrazolium bromide (MTT) w ere added to each well and incubated for two hours at 37 °C. Then, the microtiter plate was centrifuged (3,000 r p m, 5 mi n) and the supernat ant remo ved by ho l di ng the pl ate upsi de-do wn and gentle shaking. Afterwards, the wells were washed using 100 µL of phosph ate buffered saline (PBS).
(§9) The plate was again centrifuged and the supernatant removed as described before. Then, 100 µL of an isopropanol:HCl solution (1L i sopropanol+4 mL HCl 37 % w/v) were added to the wells. After i ncubati ng fo r 10 mi n at ambi ent te mperature, the a bso r pti o n of the well s at 595 nm was measured wi th an I nfi ni te ® 200 Pro microplate reader (TECAN, Männedorf, Schweiz).
(§10) The absorption values of the cells without additives were averaged and set to 100 % cell viability.
(§11) Then, t he me ans of absorption of the two compound replicates were set in relation to the blank media.
(§12) These percentage values were plotted a gainst the concentration range (37 µg/mL to 0.6×10 −3 µg/mL).
(§13) The IC50 val ue w as read from the plot ( i n µg/mL) and the uni ts conversed to µM.
(§14) If effects were observed wi th cell lines L929 and KB 3.1 (IC50 < 50 µM), the other cell lines were tested using the same protocol.
(§15) Table S2: Cytotoxicity assay experiment parameters cell line type No. growth medium […]

A further data set is described as follows: Cytotoxicity assay (MTT). In kind it is cell-based. Particulars: for IC50: 5 days. The method, then: as §1, §2, §3, §4, §5, §6, §7, §8, §9, §10, §11, §12, §13, §14, §15
The mark [1] stands for this setting: human, KB 3.1 human endocervical adenocarcinoma cells.
Where [2] appears, read: mouse, L929 mouse fibroblast cells, L929 mouse fibroblasts.

SMILES strings stand for the structures. Where two headings read alike, the source gives them in different places.

For the compound `Oc1cccc2c3c(ccc12)-c1ccc(O)c2c(O)ccc-3c12` [Compound 1, viridistratin A], in the data set with L929 (mouse fibroblasts) (Mus musculus, L929, 120 h, value in µg/mL, read-out: half-maximum inhibitory concentration (IC50)), the IC50 is 8.5 µg/mL. Further, the IC50 at 5 days in “Cytotoxicity assay (MTT)” (setting [1]) worked out at 28.3 µM; in the data set “Cytotoxicity assay (MTT)” (setting [2]) it was 12.7 µM.
For `COc1cccc2c3c(ccc12)-c1ccc(O)c2c(O)ccc-3c12` [Compound 2, viridistratin B], the IC50 at 5 days in the data set “Cytotoxicity assay (MTT)” (setting [1]) and in “Cytotoxicity assay (MTT)” (setting [2]) was 17.2 µM in each case.
Consider `COc1cccc2c3c(ccc12)-c1ccc(O)c2c(OC)ccc-3c12` [Compound 3, viridistratin C], for which the IC50 in the data set with L929 (mouse fibroblasts) (read-out: Cytotoxicity (IC50)) came to 61 µM. The IC50 at 5 days in “Cytotoxicity assay (MTT)” (setting [1]) and in “Cytotoxicity assay (MTT)” (setting [2]) was more than 50 µM in each case.
As for `O=C1C[C@H]2C(=C3CCC(=O)c4c(O)ccc2c43)c2cccc(O)c21` [Compound 4, truncatone A], the IC50 in the data set with L929 (mouse fibroblasts) (120 h, value in µg/mL, read-out: half-maximum inhibitory concentration (IC50)) stood at 3.3 µg/mL; in the data set “Cytotoxicity assay (MTT)” (KB 3.1 human endocervical adenocarcinoma), 44 µM; in “Cytotoxicity assay (MTT)” (L929 mouse fibroblasts), 10.4 µM.
Take `O=C1CCC(=O)c2c1c(O)cc1c2-c2ccc(O)c3c(O)ccc-1c23` [Compound 5, truncatone C]: the IC50 at 5 days was 30.1 µM in the data set “Cytotoxicity assay (MTT)” (setting [1]) and 16.3 µM in “Cytotoxicity assay (MTT)” (setting [2]).
